Laboratory results from US10155766B2, “Pyrazolopyrimidine antibacterial agents” (priority 2016, dated 2018).
Entries after “also recorded” stand apart in the source; their conditions may differ.

What was measured:
[1] = tested on: Pseudomonas aeruginosa (ATCC 27853); experiment: microbe, parasite or virus in culture; assay type: cell-based; settings: for zone of inhibition at 100 µM / zone of inhibition at 500 µM / zone of inhibition at 1000 µM: Pseudomonas aeruginosa, ATCC27853, read-out: Zone of inhibition (diameter, in millimeter) P. aeruginosa; for zone of inhibition at 100 µM: Conc. 0.1 mM; for zone of inhibition at 500 µM: Conc. 0.5 mM; for zone of inhibition at 1000 µM: Conc. 1.0 mM
[2] = tested on: Burkholderia thailandensis (E 264); experiment: microbe, parasite or virus in culture; assay type: cell-based; settings: for zone of inhibition at 100 µM / zone of inhibition at 500 µM / zone of inhibition at 1000 µM: Burkholderia thailandensis, read-out: Zone of inhibition (diameter, in millimeter) B. thailandensis; for zone of inhibition at 100 µM: Conc. 0.1 mM; for zone of inhibition at 500 µM: Conc. 0.5 mM; for zone of inhibition at 1000 µM: Conc. 1.0 mM
BtIspD = molecular target: T1, BtIspD (Burkholderia thailandensis, UniProt Q2SWT6); assay type: binding
T1 construct: 6xHis (AVA0421 vector, 3C-cleavable) (N, cleaved yes); made in house; host or cells: E. coli BL21(DE3)R3 Rosetta Oxford
T1 sequence (Q2SWT6 1-236): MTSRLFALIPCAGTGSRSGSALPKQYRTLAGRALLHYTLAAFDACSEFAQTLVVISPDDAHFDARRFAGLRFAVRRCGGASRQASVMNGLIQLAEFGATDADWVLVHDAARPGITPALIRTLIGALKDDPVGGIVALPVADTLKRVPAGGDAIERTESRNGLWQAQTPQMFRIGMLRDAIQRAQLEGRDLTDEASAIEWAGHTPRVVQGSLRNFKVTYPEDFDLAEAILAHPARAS

BtIspE = assay type: binding, Burkholderia thailandensis

SMILES	melting point [°C]	zone of inhibition at 100 µM [1] [mm]	zone of inhibition at 500 µM [1] [mm]	zone of inhibition at 1000 µM [1] [mm]	zone of inhibition at 100 µM [2] [mm]	zone of inhibition at 500 µM [2] [mm]	zone of inhibition at 1000 µM [2] [mm]	STD-NMR binding to BtIspD (in words) (BtIspD)	STD-NMR binding to BtIspE (in words) (BtIspE)	change of % STD binding signal to BtIspE after subsequent addition of CDP (BtIspE)	change of % STD binding signal to BtIspE upon addition of ADP (BtIspE)	growth inhibition of P. aeruginosa (in words) [1]	growth inhibition of B. thailandensis (in words) [2]	concentration at which inhibitory activity against kanamycin resistant P. aeruginosa is shown [1] [mM]	change of STD binding to BtIspD upon addition of CDP (BtIspD)	concentration at which inhibitory activity against B. thailandensis is shown [2] [µg/mL]
CC(C)(C)n1ncc2c(NCc3ccccc3)ncnc21 [Compound 11]	158 to 160	0	0	0	0	12	18	–	–	–	–	–	–	–	–	–
CCOC(=O)CNc1ncnc2c1cnn2C [Compound 5]	141 to 142	0	0	13	0	8	12	–	–	–	–	–	–	–	–	–
CC(C)(C)n1ncc2c(NCCO)ncnc21 [Compound 4]	75 to 77	0	12	20	0	8	12	–	–	–	–	–	–	–	–	–
Cn1ncc2c(NCCc3ccc(O)cc3)ncnc21 [Compound 25]	182 to 184	0	0	0	0	0	0	strongest binders	weaker binder	loses all binding signal entirely	no change	Activity was not detected; also recorded: did not show zone of inhibition activity	Activity was not detected; also recorded: did not show zone of inhibition activity	–	–	–
Cn1ncc2c(NCc3ccc(F)cc3)ncnc21 [Compound 16]	–	0	12	18	0	9	18	–	–	–	–	–	–	–	–	–
Cn1ncc2c(NCCc3ccccc3F)ncnc21 [Compound 21]	139 to 140	0	8	16	0	12	16	–	–	–	–	–	–	–	–	–
Cn1ncc2c(NCCc3ccc(Cl)cc3Cl)ncnc21 [Compound 29]	145 to 147	0	12	18	6	10	18	strongest binders	high % STD values; also recorded: highest % STD value; also recorded: significant interactions with the active site of BtIspE	–	–	measurable potency	most potent compound tested	0.5	–	–
CC(C)(C)n1ncc2c(NCCc3c(Cl)cccc3Cl)ncnc21 [Compound 28]	154 to 156	0	0	0	0	11	18	–	–	–	–	–	–	–	–	–
C[C@H](Nc1ncnc2c1cnn2C)c1ccccc1 [Compound 10]	201 to 203	0	8	14	0	11	19	–	–	–	–	–	–	–	–	–
Cn1ncc2c(NCCc3c[nH]c4ccccc34)ncnc21	183 to 185	–	–	–	–	–	–	–	–	–	–	–	–	–	–	–
Cn1ncc2c(NCc3ccccc3)ncnc21 [Compound 9]	–	0	0	0	0	0	12	–	–	–	–	–	–	–	–	–
Cn1ncc2c(NCCc3ccccc3)ncnc21 [Compound 20]	101 to 103	0	0	0	0	9	20	–	–	–	–	–	–	–	–	–
CC(C)(C)n1ncc2c(NCc3cccc([N+](=O)[O-])c3)ncnc21 [Compound 15]	135 to 137	0	13	17	0	12	16	–	–	–	–	–	–	–	–	–
Cn1ncc2c(NCc3ccco3)ncnc21 [Compound 7]	141 to 143	0	0	0	0	0	20	–	–	–	–	–	–	–	–	–
CC(C)Nc1ncnc2c1cnn2C [Compound 6]	101 to 103	0	0	10	0	13	21	–	–	–	–	–	–	–	–	–
CC(C)(C)n1ncc2c(NCCc3c(F)cccc3Cl)ncnc21 [Compound 27]	140 to 142	0	0	0	0	12	16	strongest binders	–	–	–	–	–	–	large decrease	–
Cn1ncc2c(NCCc3cccc(F)c3)ncnc21 [Compound 22]	109 to 110	0	0	8	0	11	14	–	–	–	–	–	–	–	–	–
Cn1ncc2c(NCCc3c(F)cccc3Cl)ncnc21 [Compound 26]	195 to 196	0	11	19	0	13	21	strongest binders	–	–	–	–	–	–	large decrease	–
Cn1ncc2c(NCc3ccccc3F)ncnc21 [Compound 13]	184 to 185	0	12	18	0	8	13	–	–	–	–	–	–	–	–	–
CC(C)(C)n1ncc2c(NCc3ccco3)ncnc21 [Compound 8]	101 to 103	0	6	12	0	12	14	–	–	–	–	–	–	–	–	–
CC(C)(C)n1ncc2c(NCc3ccc(Cl)c(Cl)c3)ncnc21 [Compound 19]	120 to 123	0	12	16	0	16	20	–	–	–	–	–	–	–	–	–
Cn1ncc2c(NCc3cccc(F)c3)ncnc21 [Compound 14]	176 to 177	0	10	15	0	6	11	–	high % STD values	–	–	–	–	–	–	–
Cn1ncc2c(NCCc3ccc(Cl)cc3)ncnc21 [Compound 24]	–	0	0	10	0	10	13	–	–	–	–	–	–	–	–	–
NC[C@H]1O[C@H](O[C@H]2[C@H](O)[C@@H](O[C@H]3O[C@H](CO)[C@@H](O)[C@H](N)[C@H]3O)[C@H](N)C[C@@H]2N)[C@H](O)[C@@H](O)[C@@H]1O [Kanamycin, reference compound]	–	0	0	0	6	22	30	–	–	–	–	–	–	–	–	48.5
Cn1ncc2c(NCCc3ccc(F)cc3)ncnc21 [Compound 23]	106 to 107	0	9	17	0	12	22	–	–	–	–	–	–	–	–	–
